IC50 and DDR1 phosphorylation suppression data for 1 molecule are collected here from US20220306640A1, “HYDANTOIN DERIVATIVE” (ONO PHARMACEUTICAL CO., LTD., priority 2019, published 2022).

In one assay the target is T1, DDR1 (Homo sapiens, UniProt Q08345).
T1 construct: purchased Invitrogen
Put plainly: Measurement of DDR1 inhibitory activity (LanthaScreen system, in vitro test). The note with it: GST-DDR1, Kinase tracer 178. It counts as binding. The gist of the method:
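TR-FRET tracer-displacement binding assay with GST-DDR1, Kinase tracer 178 and Eu-anti-GST antibody in HEPES pH 7.5, MgCl2, EGTA, Brij-35 buffer, 1% DMSO. Compound preincubated with enzyme 15 min at RT, then tracer/antibody 1 h at RT; 665/615 nm read. Percent inhibition versus no-enzyme and DMSO controls; IC50 from inhibition curves.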
Background: TR-FRET usually uses a lanthanide donor and a delayed reading to cut background.

The target in assay [1] is T2, DDR1 phosphorylation in kidney (Mus musculus, UniProt Q03146).
T2 construct: from tissue; host or cells: kidney of C57BL/6J mice (UUO model)
T2 sequence (Q03146 20-911): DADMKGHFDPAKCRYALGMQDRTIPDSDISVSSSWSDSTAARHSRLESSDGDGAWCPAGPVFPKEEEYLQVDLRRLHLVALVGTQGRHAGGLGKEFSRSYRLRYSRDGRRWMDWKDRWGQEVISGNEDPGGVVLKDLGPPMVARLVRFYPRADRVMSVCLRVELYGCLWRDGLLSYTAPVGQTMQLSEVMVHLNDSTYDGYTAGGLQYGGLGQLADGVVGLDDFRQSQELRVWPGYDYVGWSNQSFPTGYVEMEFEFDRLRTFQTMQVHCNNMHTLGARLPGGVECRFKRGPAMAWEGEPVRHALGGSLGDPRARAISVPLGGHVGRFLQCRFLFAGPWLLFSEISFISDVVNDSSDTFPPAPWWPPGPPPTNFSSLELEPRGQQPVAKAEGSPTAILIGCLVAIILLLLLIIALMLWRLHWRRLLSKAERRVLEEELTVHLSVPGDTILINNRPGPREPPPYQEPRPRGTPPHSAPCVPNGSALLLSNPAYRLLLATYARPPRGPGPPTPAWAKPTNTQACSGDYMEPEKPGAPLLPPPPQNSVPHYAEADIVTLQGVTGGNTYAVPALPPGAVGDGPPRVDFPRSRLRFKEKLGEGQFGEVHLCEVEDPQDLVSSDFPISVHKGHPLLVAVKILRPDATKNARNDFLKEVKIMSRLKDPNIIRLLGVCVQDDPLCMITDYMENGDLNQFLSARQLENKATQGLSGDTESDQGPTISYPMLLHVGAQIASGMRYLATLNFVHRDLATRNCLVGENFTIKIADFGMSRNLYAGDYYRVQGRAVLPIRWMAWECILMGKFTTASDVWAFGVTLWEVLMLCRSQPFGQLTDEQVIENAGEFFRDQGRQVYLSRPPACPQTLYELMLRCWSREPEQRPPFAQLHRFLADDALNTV
Put plainly: Measurement of DDR1 phosphorylation suppression rate by using UUO (unilateral ureteral obstruction) model (in vivo test). Set-up: species or system C57BL/6J mice. The note with it: UUO mice, dose of 10 mg/kg, oral single dose, kidney 8 h after dosing, relative to the difference between the untreated group and control group. As to the method: Biological Example 4: Measurement of DDR1 phosphorylation suppression rate by using UUO (unilateral ureteral obstruction) model (in vivo test).
Species & Strain: C57BL/6J mice
Mice were randomly assigned to respective groups based on the animal's body weight.
Surgery was performed in male C57BL/6J mice on Day 0. With the mice under anesthesia, operation area was disinfected with 75% alcohol after shaving. Mice in UUO group were exposed left ureter through a small incision on the left side of the abdomen and ligated with 3-0 silk at two locations about 0.5 cm below the renal hilum. Normal control mice were had their ureters manipulated but not ligated. Zoletil combined with Xylazine (20:1, v:v) were used in this study, the final dose of Zoletil was 25 mg/kg.
Route: oral administration
Dosage: 1, 3 and 10 mg/kg
Body weights of all animals were measured prior surgery and prior dosing. Clinical observations of all animals were monitored and recorded daily throughout the study. […]
On Day 3, all animals were euthanized with carbon dioxide. […] Then the samples were analyzed by Elisa.
DDR1 and p-DDR1 levels in ipsilateral kidney samples were analyzed by Elisa method. […]
All statistical tests were conducted, and the level of significance was set at 5% or P<0.05. The group means and standard deviation were calculated for all measurement parameters as study designed. […]

T1 sequence (Q08345 19-913): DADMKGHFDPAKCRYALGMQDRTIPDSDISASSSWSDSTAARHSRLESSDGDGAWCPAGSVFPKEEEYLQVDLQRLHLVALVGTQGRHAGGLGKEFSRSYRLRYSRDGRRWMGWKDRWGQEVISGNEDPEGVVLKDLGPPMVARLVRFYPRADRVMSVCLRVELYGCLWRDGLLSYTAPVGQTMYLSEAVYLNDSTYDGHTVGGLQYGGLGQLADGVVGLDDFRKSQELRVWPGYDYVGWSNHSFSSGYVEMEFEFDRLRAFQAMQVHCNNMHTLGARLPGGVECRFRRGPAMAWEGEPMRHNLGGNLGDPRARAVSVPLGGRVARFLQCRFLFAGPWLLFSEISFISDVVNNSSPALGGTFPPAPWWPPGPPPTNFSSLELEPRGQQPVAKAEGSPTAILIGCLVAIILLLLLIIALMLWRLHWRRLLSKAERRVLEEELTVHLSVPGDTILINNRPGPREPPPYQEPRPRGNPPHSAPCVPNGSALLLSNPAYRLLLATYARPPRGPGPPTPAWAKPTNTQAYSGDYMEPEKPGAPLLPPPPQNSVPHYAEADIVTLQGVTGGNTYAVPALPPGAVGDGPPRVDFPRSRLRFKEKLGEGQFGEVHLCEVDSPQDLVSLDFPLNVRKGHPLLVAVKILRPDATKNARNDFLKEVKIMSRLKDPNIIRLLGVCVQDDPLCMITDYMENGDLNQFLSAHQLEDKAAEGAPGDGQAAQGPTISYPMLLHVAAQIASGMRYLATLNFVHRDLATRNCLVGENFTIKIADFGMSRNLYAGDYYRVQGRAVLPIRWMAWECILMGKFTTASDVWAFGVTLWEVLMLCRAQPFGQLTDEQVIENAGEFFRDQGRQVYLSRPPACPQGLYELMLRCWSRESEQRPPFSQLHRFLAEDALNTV

One may read the IC50 as the concentration needed to halve the response being measured. A lower IC50 goes with greater potency in that assay. Take `Cc1cc(Oc2ccnc(N)n2)ccc1N1C(=O)CN(c2ccc(F)c(OC(F)(F)F)c2)C1=O` [Example 3(110), 3-{4-[(2-amino-4-pyrimidinyl)oxy]-2-methylphenyl}-1-[4-fluoro-3-(trifluoromethoxy)phenyl]-2,4-imidazolidinedione]: at DDR1, the IC50 is 1 nM. For the same molecule, the DDR1 phosphorylation suppression in assay [1] is on record as 50%.
